{"source": "patent US4698350A", "about": "“1-ethyl-6-fluoro-1,4-dihydro- 7-(2,6-dimethyl-4-pyridinyl)-4-oxo-3-quinolinecarboxylic acid and antibacterial use thereof” (Sterling Drug Inc., priority 1984, dated 1987)", "key": {"[1]": {"system": "Staphylococcus aureus Smith", "test": "Mouse protection test, S. aureus Smith infection, single dose", "type": "in vivo, ICR mice; Staphylococcus aureus", "conditions": "for Survivors/Total: single dose", "experimental": "(§1) ICR mice, female, 18-20 grams each.\n(§2) Solutions of Win 52,522 and Win 35,439 were prepared by dissolving the appropriate weight of drug in 0.3 to 0.4 ml of 1 N NaOH and then bringing the solutions to the desired volume with distilled water. Methicillin and vancomycin were dissolved directly in distilled water.\nTwo and one-half ml of pool were added to 247.5 ml of 5% gastric mucin to provide the test inoculum containing 2.1×10^4 cells/ml.\n(§3) Mice were inoculated intraperitoneally with 0.5 ml of the bacterial test inoculum.\n1. Single dose test--Mice were medicated subcutaneously or orally once (0.5 ml) one-half hour postinfection.\n(§4) Deaths were recorded daily for seven days for all tests. Fifty percent protective dose values (PD50's) were calculated using probit analysis [SAS Users Guide: Statistics, 1982 Edition, SAS Institute, Inc., Cary, N.C.]."}, "S. epidermidis 1-3-H": {"system": "S. epidermidis 1-3-H", "test": "In vitro antibacterial MIC/MBC test", "type": "cell-based", "conditions": "Staphylococcus epidermidis, 13H", "experimental": "(§5) Win 52,522 and Win 35,439 were solubilized in 0.1 ml of 0.5 N NaOH/mg of compound and diluted in sterile distilled water to 160 mcg/ml. Vancomycin and methicillin were solubilized in sterile distilled water to 1250 mcg/ml of base compound. The stock solutions were sterilized by filtration through membrane filters with a 0.45 μm pore size.\n(§6) The bacterial cultures listed in Table I (hereinbelow) were grown overnight at 37° C. in MHB for all cultures except the Streptococcus strains. These were grown in BHI+10% NHS. The overnight broth cultures were adjusted to an optical density of 0.10 (650 nm, B L Spectronic 20) in sterile distilled water and subsequently diluted to 6.7×10^6 cells/ml in MHB or BHI+1% NHS.\n(§7) Serial two-fold dilutions of the compound solutions were prepared in MHB (or in BHI+1% NHS for tests with Streptococci) and dispensed into 96-well microtiter trays in a volume of 0.1 ml/well using a Sandy Springs (Bellco Glass Co.) dispenser. The trays were then inoculated with 0.0015 ml of a suspension containing 6.7×10^6 cells/ml of the appropriate inoculum using a MIC-2000 inoculator (Dynatech Corp.) resulting in a final inoculum of approximately 1×10^4 cells/well or 1×10^5 cells/ml. The trays were incubated at 37° C. for 18-20 hours and the minimal inhibitory concentration (MIC), defined as the lowest concentration of compound to inhibit visible bacterial growth, was recorded.\n(§8) After the MIC values were recorded, the contents in the microtiter trays were thoroughly mixed on a Bellco Mini-orbital Shaker (Bellco Glass Co.) for 3 min. at a setting of 8. A portion (0.0015 ml) from each well was then transferred via an MIC-2000 inoculator to plates containing MHA or BHI agar+10% NHS. The plates were incubated at 37° C. for 18-20 hrs. The minimal bactericidal concentration (MBC), defined as the lowest concentration of compound that prevented the formation of a recognizable colony on the agar surface, was recorded."}, "S. epidermidis 1-5-H": {"system": "S. epidermidis 1-5-H", "test": "In vitro antibacterial MIC/MBC test", "type": "cell-based", "conditions": "Staphylococcus epidermidis, 15H", "experimental": "as §5, §6, §7, §8"}, "S. aureus VA16951": {"system": "S. aureus VA16951", "test": "In vitro antibacterial MIC/MBC test", "type": "cell-based", "conditions": "Staphylococcus aureus, VA16951", "experimental": "as §5, §6, §7, §8"}, "S. aureus (25923)": {"system": "S. aureus (25923)", "test": "In vitro antibacterial MIC/MBC test", "type": "cell-based", "conditions": "Staphylococcus aureus, ATCC25923", "experimental": "as §5, §6, §7, §8"}, "S. epidermidis (12228)": {"system": "S. epidermidis (12228)", "test": "In vitro antibacterial MIC/MBC test", "type": "cell-based", "conditions": "Staphylococcus epidermidis, ATCC12228", "experimental": "as §5, §6, §7, §8"}, "S. pyogenes (89)": {"system": "S. pyogenes (89)", "test": "In vitro antibacterial MIC/MBC test", "type": "cell-based", "conditions": "Streptococcus pyogenes", "experimental": "as §5, §6, §7, §8"}, "S. aureus 4-81": {"system": "S. aureus 4-81", "test": "In vitro antibacterial MIC/MBC test", "type": "cell-based", "conditions": "Staphylococcus aureus, 481", "experimental": "as §5, §6, §7, §8"}, "S. aureus": {"system": "S. aureus", "test": "In vitro MIC/MBC summary (Table II)", "type": "cell-based", "conditions": "Staphylococcus aureus, 15 S. aureus strains", "experimental": "as §5, §6, §7, §8"}, "Streptococcus sp.": {"system": "Streptococcus sp.", "test": "In vitro MIC/MBC summary (Table II)", "type": "cell-based", "conditions": "Streptococcus", "experimental": "as §5, §6, §7, §8"}, "S. edidermidis": {"system": "S. edidermidis", "test": "In vitro MIC/MBC summary (Table II)", "type": "cell-based, S. epidermidis", "conditions": "Staphylococcus epidermidis", "experimental": "as §5, §6, §7, §8"}, "[2]": {"system": "Staphylococcus aureus 39881 (Methicillin-resistant)", "test": "Mouse protection test, S. aureus 39881 (methicillin-resistant) infection", "type": "in vivo, ICR mice; Staphylococcus aureus", "conditions": "for Survivors/Total: two doses", "experimental": "as §1, §2\nThe culture was streaked onto three Brain Heart Infusion Agar plates and incubated 16 hours at 37° C. The cells were washed off each plate with five ml of saline and the cell suspension was shaken with glass beads for two minutes on a paint shaker. The suspension was diluted with saline so that a […] gave a 44% T reading on a B+L Spectronic 20 (650 nm) calibrated with saline. The stock suspension was diluted 1:24 (10 ml stock suspension+230 ml 5% mucin) to obtain the test inoculum containing 1.55×10^9 cells/ml.\nas §3\nMice were medicated twice: at one-half and four hours postinfection. The drugs were administered by both subcutaneous (0.2 ml) and oral (0.5 ml) routes.\nas §4"}, "[3]": {"conditions": "Staphylococcus aureus, sc, 168 h, read-out: Protective Dose 50% (95% Confidence Limits)"}}, "note": "Read-outs that look alike come from different tables or passages of the source.", "data": [{"compound": "CN[C@H](CC(C)C)C(=O)N[C@H]1C(=O)N[C@@H](CC(N)=O)C(=O)N[C@H]2C(=O)N[C@H]3C(=O)N[C@H](C(=O)N[C@H](C(=O)O)c4cc(O)cc(O)c4-c4cc3ccc4O)[C@H](O)c3ccc(c(Cl)c3)Oc3cc2cc(c3O[C@@H]2O[C@H](CO)[C@@H](O)[C@H](O)[C@H]2O[C@H]2C[C@](C)(N)[C@H](O)[C@H](C)O2)Oc2ccc(cc2Cl)[C@H]1O", "note": "[Vancomycin]", "values": [{"measurement": "Survivors/Total", "setting": "[1]; 0.78 mg/kg sc", "value": "2/10"}, {"measurement": "Survivors/Total", "setting": "[1]; 1.56 mg/kg sc", "value": "9/10"}, {"measurement": "Survivors/Total", "setting": "[1]; 3.13 mg/kg sc", "value": "9/10"}, {"measurement": "Survivors/Total", "setting": "[1]; 6.25 mg/kg sc", "value": "10/10"}, {"measurement": "Survivors/Total", "setting": "[1]; 12.5 mg/kg sc", "value": "10/10"}, {"measurement": "ED50", "setting": "[1]; [3]", "value": 1.1, "unit": "mg/kg"}, {"measurement": "MBC", "setting": "S. epidermidis 1-3-H", "value": 1, "unit": "µg/mL"}, {"measurement": "MIC", "setting": "S. epidermidis 1-3-H", "value": 1, "unit": "µg/mL"}, {"measurement": "MBC", "setting": "S. epidermidis 1-5-H", "value": 2, "unit": "µg/mL"}, {"measurement": "MIC", "setting": "S. epidermidis 1-5-H", "value": 2, "unit": "µg/mL"}, {"measurement": "MBC", "setting": "S. aureus VA16951", "value": 1, "unit": "µg/mL"}, {"measurement": "MIC", "setting": "S. aureus VA16951", "value": 1, "unit": "µg/mL"}, {"measurement": "MBC", "setting": "S. aureus (25923)", "value": 1, "unit": "µg/mL"}, {"measurement": "MIC", "setting": "S. aureus (25923)", "value": 1, "unit": "µg/mL"}, {"measurement": "MBC", "setting": "S. epidermidis (12228)", "value": 1, "unit": "µg/mL"}, {"measurement": "MIC", "setting": "S. epidermidis (12228)", "value": 1, "unit": "µg/mL"}, {"measurement": "MBC", "setting": "S. pyogenes (89)", "value": 16, "unit": "µg/mL"}, {"measurement": "MIC", "setting": "S. pyogenes (89)", "value": 16, "unit": "µg/mL"}, {"measurement": "MBC", "setting": "S. aureus 4-81", "value": 0.5, "unit": "µg/mL"}, {"measurement": "MIC", "setting": "S. aureus 4-81", "value": 0.5, "unit": "µg/mL"}, {"measurement": "MBC", "setting": "S. aureus; read-out: MBC 50%", "value": 1, "unit": "µg/mL"}, {"measurement": "MBC", "setting": "S. aureus; read-out: MBC 90%", "value": 1, "unit": "µg/mL"}, {"measurement": "MBC", "setting": "S. aureus; read-out: MBC Range", "value": "0.5 to 1", "unit": "µg/mL"}, {"measurement": "MIC50", "setting": "S. aureus; read-out: MIC 50%", "value": 1, "unit": "µg/mL"}, {"measurement": "MIC90", "setting": "S. aureus; read-out: MIC 90%", "value": 1, "unit": "µg/mL"}, {"measurement": "MIC", "setting": "S. aureus; read-out: MIC Range", "value": "0.5 to 1", "unit": "µg/mL"}, {"measurement": "MIC50", "setting": "Streptococcus sp.", "value": 2, "unit": "µg/mL"}, {"measurement": "MIC90", "setting": "Streptococcus sp.", "value": 16, "unit": "µg/mL"}, {"measurement": "MBC", "setting": "Streptococcus sp.; read-out: MBC 50%", "value": 16, "unit": "µg/mL"}, {"measurement": "MBC", "setting": "Streptococcus sp.; read-out: MBC 90%", "value": "> 125", "unit": "µg/mL"}, {"measurement": "MIC", "setting": "Streptococcus sp.; read-out: MIC Range", "value": "0.06 to 16", "unit": "µg/mL"}, {"measurement": "MIC50", "setting": "S. edidermidis", "value": 1, "unit": "µg/mL"}, {"measurement": "MIC90", "setting": "S. edidermidis", "value": 1, "unit": "µg/mL"}, {"measurement": "MBC", "setting": "S. edidermidis; read-out: MBC 50%", "value": 1, "unit": "µg/mL"}, {"measurement": "MBC", "setting": "S. edidermidis; read-out: MBC 90%", "value": 2, "unit": "µg/mL"}, {"measurement": "MBC", "setting": "S. edidermidis; read-out: MBC Range", "value": "1 to 2", "unit": "µg/mL"}, {"measurement": "MIC", "setting": "S. edidermidis; read-out: MIC Range", "value": "1 to 2", "unit": "µg/mL"}, {"measurement": "Survivors/Total", "setting": "[2]; 6.25 mg/kg sc", "value": "0/10"}, {"measurement": "Survivors/Total", "setting": "[2]; 12.5 mg/kg sc", "value": "1/10"}, {"measurement": "Survivors/Total", "setting": "[2]; 25 mg/kg sc", "value": "9/10"}, {"measurement": "Survivors/Total", "setting": "[2]; 50 mg/kg sc", "value": "10/10"}, {"measurement": "ED50", "setting": "[2]; [3]", "value": 17.7, "unit": "mg/kg"}]}]}
